In patent EP0297534B1, “Castanospermine esters and glycosides” (MERRELL DOW PHARMACEUTICALS INC., priority 1987, dated 1989):
pIC50: −log10 of the molar value.

Key:
Intestinal Sucrase = biological target: T1, Intestinal Sucrase (Rattus norvegicus, UniProt P23739); experiment: Intestinal sucrase inhibition (glucose liberated from sucrose); type: biochemical; details: crude homogenate from rat intestine; 1 hour preincubation with test compound; sucrose substrate, pH 5.9; read-out: IC₅₀ Intestinal Sucrase
T1 construct: Sucrase was isolated from rat intestine as a crude homogenate; from tissue; host or cells: rat intestine
T1 sequence (P23739 whole entry): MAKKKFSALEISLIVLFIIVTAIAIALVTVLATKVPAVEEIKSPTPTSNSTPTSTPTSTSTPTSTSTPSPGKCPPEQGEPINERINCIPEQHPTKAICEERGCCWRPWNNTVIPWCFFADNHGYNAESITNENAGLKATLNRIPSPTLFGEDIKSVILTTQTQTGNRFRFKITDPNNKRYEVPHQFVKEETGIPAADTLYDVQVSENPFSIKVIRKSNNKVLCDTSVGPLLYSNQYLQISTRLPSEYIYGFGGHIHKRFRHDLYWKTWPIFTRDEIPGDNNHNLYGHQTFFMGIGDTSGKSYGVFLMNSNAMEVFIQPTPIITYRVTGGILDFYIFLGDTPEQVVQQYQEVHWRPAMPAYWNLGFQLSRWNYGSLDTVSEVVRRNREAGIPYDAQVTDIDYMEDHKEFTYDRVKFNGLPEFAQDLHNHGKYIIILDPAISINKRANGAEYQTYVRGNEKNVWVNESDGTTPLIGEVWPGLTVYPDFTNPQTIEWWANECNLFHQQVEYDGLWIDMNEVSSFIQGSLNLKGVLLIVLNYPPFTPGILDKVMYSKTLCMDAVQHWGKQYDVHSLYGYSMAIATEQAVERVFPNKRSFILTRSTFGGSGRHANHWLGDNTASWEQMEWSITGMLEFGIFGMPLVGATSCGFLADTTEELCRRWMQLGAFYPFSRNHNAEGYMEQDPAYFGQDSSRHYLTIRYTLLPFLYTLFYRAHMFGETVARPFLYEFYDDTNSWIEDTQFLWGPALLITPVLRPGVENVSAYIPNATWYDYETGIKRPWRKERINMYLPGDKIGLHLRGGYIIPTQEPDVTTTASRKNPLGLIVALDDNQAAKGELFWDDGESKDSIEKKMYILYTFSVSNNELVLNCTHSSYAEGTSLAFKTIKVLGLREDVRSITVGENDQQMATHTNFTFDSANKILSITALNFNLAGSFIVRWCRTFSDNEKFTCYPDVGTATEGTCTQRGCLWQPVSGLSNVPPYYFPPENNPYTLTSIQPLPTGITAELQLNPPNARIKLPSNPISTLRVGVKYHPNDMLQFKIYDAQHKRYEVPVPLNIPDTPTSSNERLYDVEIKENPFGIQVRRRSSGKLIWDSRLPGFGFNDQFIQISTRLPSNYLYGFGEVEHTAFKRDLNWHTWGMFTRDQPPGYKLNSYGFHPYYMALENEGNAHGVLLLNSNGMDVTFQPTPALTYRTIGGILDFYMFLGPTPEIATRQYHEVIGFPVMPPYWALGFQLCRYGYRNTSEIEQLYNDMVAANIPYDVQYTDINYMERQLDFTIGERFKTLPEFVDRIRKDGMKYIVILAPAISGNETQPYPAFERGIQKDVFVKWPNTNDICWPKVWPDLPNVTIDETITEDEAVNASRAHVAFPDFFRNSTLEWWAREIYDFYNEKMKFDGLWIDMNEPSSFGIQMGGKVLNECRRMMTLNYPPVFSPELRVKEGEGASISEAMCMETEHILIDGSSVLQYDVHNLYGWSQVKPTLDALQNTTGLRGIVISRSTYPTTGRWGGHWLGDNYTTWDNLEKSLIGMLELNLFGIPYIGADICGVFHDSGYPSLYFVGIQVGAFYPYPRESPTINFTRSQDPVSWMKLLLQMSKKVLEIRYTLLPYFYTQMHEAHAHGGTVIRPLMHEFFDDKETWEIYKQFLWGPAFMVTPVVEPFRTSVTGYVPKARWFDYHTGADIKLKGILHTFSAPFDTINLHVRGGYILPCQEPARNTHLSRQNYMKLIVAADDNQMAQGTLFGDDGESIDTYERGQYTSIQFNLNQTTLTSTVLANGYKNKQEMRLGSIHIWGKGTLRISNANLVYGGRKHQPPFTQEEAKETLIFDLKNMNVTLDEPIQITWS
Description: Sucrase was isolated from rat intestine as a crude homogenate using the salt extraction procedure of Kolinska [Biochem. Biophys. Acta, 284, 235 (1984)]. Incubation mixtures contained 100 µl of enzyme preparation plus test compound and were incubated for 1 hour before the addition of 6.6 µmole sucrose in 100 µl 0.1 M sodium maleate, pH 5.9. The mixtures were incubated an additional 30 minutes and then heat inactivated at 80-100°C for 3 minutes. Denatured protein was removed by centrifugation. Glucose liberated was determined by glucose dehydrogenase reagents (Seragen Diagnostics).

Lysosomal α-Glucosidase = biological target: T2, Lysosomal α-Glucosidase (Rattus norvegicus, UniProt Q6P7A9); experiment: Lysosomal α-glucosidase inhibition (p-nitrophenyl-α-D-glucoside hydrolysis); type: biochemical; details: partially purified from rat liver, 1 hour preincubation at 37°C, pH 4.2, read-out: IC₅₀ Lysosomal α-Glucosidase
T2 construct: Lysosomal α-glucosidase was isolated and partially purified from rat liver; from tissue; host or cells: rat liver
T2 sequence (Q6P7A9 70-953): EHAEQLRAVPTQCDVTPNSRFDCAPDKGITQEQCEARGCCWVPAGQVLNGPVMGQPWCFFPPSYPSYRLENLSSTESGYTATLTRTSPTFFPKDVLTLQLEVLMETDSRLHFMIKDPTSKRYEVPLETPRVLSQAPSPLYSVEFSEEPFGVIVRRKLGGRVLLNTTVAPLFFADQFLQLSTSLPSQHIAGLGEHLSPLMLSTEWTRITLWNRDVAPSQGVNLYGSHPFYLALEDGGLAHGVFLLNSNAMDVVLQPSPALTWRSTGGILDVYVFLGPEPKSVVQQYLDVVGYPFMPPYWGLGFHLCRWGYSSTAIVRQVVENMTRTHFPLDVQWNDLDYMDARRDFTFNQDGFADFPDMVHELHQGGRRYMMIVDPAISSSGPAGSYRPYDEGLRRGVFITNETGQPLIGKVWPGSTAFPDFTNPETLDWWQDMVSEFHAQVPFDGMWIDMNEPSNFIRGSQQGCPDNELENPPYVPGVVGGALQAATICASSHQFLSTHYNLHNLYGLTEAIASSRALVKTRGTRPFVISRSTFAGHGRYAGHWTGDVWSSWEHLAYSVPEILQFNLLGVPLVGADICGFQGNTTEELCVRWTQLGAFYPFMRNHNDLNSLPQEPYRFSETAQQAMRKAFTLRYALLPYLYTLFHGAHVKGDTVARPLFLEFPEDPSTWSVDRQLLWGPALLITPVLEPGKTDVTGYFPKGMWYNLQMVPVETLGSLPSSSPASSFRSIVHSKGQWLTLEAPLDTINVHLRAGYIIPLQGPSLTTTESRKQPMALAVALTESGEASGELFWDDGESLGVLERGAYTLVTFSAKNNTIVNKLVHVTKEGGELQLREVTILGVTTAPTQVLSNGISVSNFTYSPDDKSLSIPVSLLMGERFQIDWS
Description: Lysosomal α-glucosidase was isolated and partially purified from rat liver by the method of Dissous [Anal. Biochem., 116, 35 (1981)] through the ammonium sulfate fractionation steps. Enzyme was incubated with test compound for 1 hour at 37°C prior to the addition of p-nitrophenyl-α-D-glucoside in a final volume of 0.6 ml of 0.1 M sodium acetate, 25 mM potassium chloride, pH 4.2. Mixtures were incubated for an additional 30 minutes at 37°C and then heat inactivated at 90°C. Denatured protein was removed by centrifugation. One ml of 0.1 M sodium carbonate was added to the supernatant fraction and liberated nitrophenol determined by its absorption at 410 nm.

serum glucose elevation = experiment: Sucrose load test: inhibition of serum glucose elevation; type: in vivo, ICR Swiss mice; details: for minimal effective dose: Mus musculus, 0.5 h, oral, test compound plus sucrose at 2.0 g/kg, serum glucose at 30 minutes post sucrose, amount needed to significantly inhibit serum glucose elevation; for Duration Of Action: oral test compound 1, 2 or 3 hours before sucrose at 2.0 g/kg, serum glucose 30 minutes post sucrose
Description: The compounds of the present invention were further tested in a sucrose load test to determine their ability to inhibit serum glucose elevation. The procedure can be summarized as follows.
ICR Swiss mice, fasted for 18-20 hours, were orally dosed with test compound plus sucrose at 2.0 g/kg. At 30 minutes post sucrose, the animals were sacrificed and their serum glucose concentrations were determined. […] To test duration of action, mice were orally dosed twice. The initial dose was test compound or vehicle. After 1, 2, or 3 hours, the mice were dosed with sucrose at 2.0 g/kg. After an additional 30 minutes post sucrose, the animals were sacrificed and their serum glucose concentrations were determined. Test compound activity was indicated by a significant difference of serum glucose concentration from the corresponding control. The activity observed can be summarized as follows: TABLE II

SMILES	pIC50 (Intestinal Sucrase)	pIC50 (Lysosomal α-Glucosidase)	minimal effective dose (serum glucose elevation) [mg/kg]	Duration Of Action (serum glucose elevation)
O=C(O[C@H]1[C@H](O)[C@H]2[C@@H](O)CCN2C[C@@H]1OC(=O)c1ccccc1)c1ccccc1 [6,7-Dibenzoate, [1S-(1α,6β,7α,8β,8aβ)]-octahydro-1,6,7,8-indolizinetetrol 6,7-dibenzoate]	5.70	< 3.00	20	–
O=C(O[C@H]1[C@H](O)[C@H]2[C@@H](O)CCN2C[C@@H]1OC(=O)c1ccc(F)cc1)c1ccc(F)cc1 [6,7-bis(4-Fluorobenzoate), [1S-(1α,6β,7α,8β,8aβ)]-octahydro-1,6,7,8-indolizinetetrol 6,7-bis(4-fluorobenzoate)]	5.40	< 3.00	–	–
CCCC(=O)O[C@H]1[C@H](O)[C@@H](OC(=O)CCC)CN2CC[C@H](O)[C@H]12 [6,8-Dibutyrate, [1S-(1α,6β,7α,8β,8aβ)]-octahydro-1,6,7,8-indolizinetetrol 6,8-dibutanoate]	6.70	< 3.00	–	–
COc1ccc(C(=O)O[C@H]2CN3CC[C@H](O)[C@@H]3[C@@H](O)[C@@H]2O)cc1 [6-(4-Methoxybenzoate), (1S-(1α,6β,7α,8β,8aβ)]-octahydro-1,6,7,8-indolizinetetrol 6-(4-methoxybenzoate)]	5.70	3.00	–	–
Cc1ccc(C(=O)O[C@H]2CN3CC[C@H](O)[C@@H]3[C@@H](O)[C@@H]2O)cc1 [6-(4-Methylbenzoate), [1S-(1α,6β,7α,8β,8aβ)]-octahydro-1,6,7,8-indolizinetetrol 6-(4-methylbenzoate)]	6.52	3.00	–	–
O=C(O[C@H]1[C@H](O)[C@H]2[C@@H](O)CCN2C[C@@H]1O)c1ccc(F)cc1 [7-(4-Fluorobenzoate), [1S-(1α,6β,7α,8β,8aβ)]-octahydro-1,6,7,8-indolizinetetrol 7-(4-fluorobenzoate)]	6.40	5.22	5	2 h

The remaining molecules from weak to strong by pIC50 (Intestinal Sucrase), led by results:

pIC50 (Intestinal Sucrase)	pIC50 (Lysosomal α-Glucosidase)	SMILES	minimal effective dose (serum glucose elevation) [mg/kg]	Duration Of Action (serum glucose elevation)
5.70	3.70	O=C(O[C@H]1[C@H](O)[C@H]2[C@@H](O)CCN2C[C@@H]1O)c1ccccc1 [7-Benzoate, [1S-(1α,6β,7α,8β,8aβ)]-octahydro-1,6,7,8-indolizinetetrol 7-benzoate]	5	–
6.40	4.00	O=C(O[C@H]1[C@H](O)[C@H]2[C@@H](O)CCN2C[C@@H]1O)c1ccc(Cl)cc1Cl [7-(2,4-Dichlorobenzoate), [1S-(1α,6β,7α,8β,8aβ)]-octahydro-1,6,7,8-indolizinetetrol 7-(2,4-dichlorobenzoate)]	20	–
6.70	5.40	O=C(O[C@H]1CN2CC[C@H](O)[C@@H]2[C@@H](O)[C@@H]1O)c1ccc(F)cc1 [6-(4-Fluorobenzoate), [1S-(1α,6β,7α,8β,8aβ)]-octahydro-1,6,7,8-indolizinetetrol 6-(4-fluorobenzoate)]	5	–
7.10	3.10	O=C(O[C@H]1CN2CC[C@H](O)[C@@H]2[C@@H](O)[C@@H]1O)c1ccccc1 [6-Benzoate, (1S-(1α,6β,7α,8β,8aβ)]-octahydro-1,6,7,8-indolizinetetrol 6-benzoate]	1	1 hour hours
7.30	3.52	OC[C@H]1O[C@H](O[C@H]2[C@H](O)[C@@H](O)CN3CC[C@H](O)[C@H]23)[C@H](O)[C@@H](O)[C@@H]1O [8-α-D-Glucopyranoside, 8-O-(α-D-glucopyranosyl)-[1S-(1α,6β,7α,8β,8aβ)]-octahydro-1,6,7,8-indolizinetetrol]	1	≧3 hours
